# Laboratory results: patent publication US9676789B2, “Aminated derivative of homoharringtonine, preparation method therefor, and application thereof” (HANGZHOU BENSHENG PHARMACEUTICAL CO., LTD., priority 2011, dated 2017)
# What was measured:
# [1] = test system: H9 (acute lymphoblastic leukemia, ALL); test: MTT leukemia cell growth inhibition, 72 h; format: cell-based, human; details: Homo sapiens, H9, 72 h; for IC50: read-out: IC50; for IC90: read-out: IC90
# From the text: (§1) Leukemia cell lines: K562/adr (drug-resistant, chronic myeloid leukemia, CML), NB4 (acute promyelocytic leukemia, AML), Kasumi-1 (acute myeloid leukemia M2 type, AML-M2), Jurkat (acute lymphoblastic leukemia, ALL), all of which are donated by Cancer Research Institute of Zhejiang University, China; and H9 (acute lymphoblastic leukemia, ALL), which is purchased from China Center for Type Culture Collection.
# (§2) Obtaining 6000 well-growing leukemia cells and inoculating them into wells of a 96-well cell culture plate. The culture medium is the 1640 cell culture medium containing 10% fetal bovine serum. After adding the homoharringtonine derivatives of different concentrations and mixing uniformly, placing the plate in a carbon dioxide cell incubator (5% CO2) at 37° C. and incubating for 72 hours. Then the viable cell concentration is determined by the MTT method. In this experiment, the cell viability in control group (not treated with any compound) is set as 100%.
# [2] = test system: Jurkat (acute lymphoblastic leukemia, ALL); test: MTT leukemia cell growth inhibition, 72 h; format: cell-based, human; details: Homo sapiens; for IC50: read-out: IC50; for IC90: read-out: IC90
# From the text: as §1, §2
# [3] = test system: K562/adr (drug-resistant, chronic myeloid leukemia, CML); test: MTT leukemia cell growth inhibition, 72 h; format: cell-based, human; details: Homo sapiens, K562/Adr; for IC50: read-out: IC50; for IC90: read-out: IC90
# From the text: as §1, §2
# [4] = test system: Kasumi-1 (acute myeloid leukemia M2 type, AML-M2); test: MTT leukemia cell growth inhibition, 72 h; format: cell-based, human; details: Homo sapiens, Kasumi-1, 72 h; for IC50: read-out: IC50; for IC90: read-out: IC90
# From the text: as §1, §2
# [5] = test system: NB4 (acute promyelocytic leukemia, AML); test: MTT leukemia cell growth inhibition, 72 h; format: cell-based, human; details: Homo sapiens, NB4, 72 h; for IC50: read-out: IC50; for IC90: read-out: IC90
# From the text: as §1, §2
# [6] = test system: RPMI8226 (multiple myeloma); test: MTT multiple myeloma cell growth inhibition, 72 h; format: cell-based, human; details: Homo sapiens, RPMI-8226, RPMI8226, 72 h; for IC50: read-out: IC50; for IC90: read-out: IC90
# Experimental: Multiple myeloma and lymphoma cell lines: RPMI8226 (multiple myeloma), purchased from Fuxiang Bio-tech Co. Ltd., Shanghai, China.
# Obtaining 6000 well-growing leukemia cells and inoculating them into wells of a 96-well cell culture plate. The culture medium is the 1640 cell culture medium containing 10% fetal bovine serum. After adding the homoharringtonine derivatives of different concentrations and mixing uniformly, placing the plate in a carbon dioxide cell incubator (5% CO2) at 37° C. and incubating for 72 hours. Then the viable cell concentration is determined by the MTT method.
# [7] = test system: A549 (human lung cancer); test: MTT solid tumor cell growth inhibition, 72 h; format: cell-based; details: Homo sapiens, A549, 72 h; for IC50: read-out: IC50; for IC90: read-out: IC90
# Experimental: (§3) Human solid tumor cell lines: Hep-2 ([…]), A549 (human lung cancer), CaES-17 (esophageal cancer cell), PC-3 (prostate cancer), CNE (nasopharyngeal carcinoma cell), and SK-OV-3 (ovarian cancer cell), all of which are purchased from China Center For Type Culture Collection; RKO (human colon adenocarcinoma cell), MGC 803 (human gastric cancer cell), MG63 (osteosarcoma) and U87 MG (malignant glioma cell), all of which are purchased from Fuxiang Bio-tech Co. Ltd., Shanghai, China; PANC-1 (pancreatic cancer), Huh7 (human liver cancer cell), Becap37 (human breast cancer cell), and Hela (human cervical cancer cell), all of which are donated by Cancer Research Institute of Zhejiang University, China.
# (§4) Obtaining 4000 well-growing human solid tumor cells and inoculating them into wells of a 96-well cell culture plate. The culture medium is DMEM High Glucose cell culture medium containing 10% fetal bovine serum. The plate is placed in a carbon dioxide cell incubator (5% CO2) at 37° C. and incubating for 24 hours. After adding the homoharringtonine derivatives of different concentration and mixing uniformly, the plate is placed in a carbon dioxide cell incubator (5% CO2) at 37° C. and incubating for 72 hours. Then the viable cell concentration is determined by the MTT method and the cell viability (%) after drug treatment is calculated. In this experiment, the cell viability of control group (not treated with any compound) is set as 100%.
# [8] = test system: Becap37 (human breast cancer cell); test: MTT solid tumor cell growth inhibition, 72 h; format: cell-based; details: Homo sapiens, Becap37, 72 h; for IC50: read-out: IC50; for IC90: read-out: IC90
# Experimental: as §3, §4
# [9] = test system: Huh7 (human liver cancer cell); test: MTT solid tumor cell growth inhibition, 72 h; format: cell-based; details: Homo sapiens, Huh-7, Huh7, 72 h; for IC50: read-out: IC50; for IC90: read-out: IC90
# Experimental: as §3, §4
# [10] = test system: MGC 803 (human gastric cancer cell); test: MTT solid tumor cell growth inhibition, 72 h; format: cell-based; details: Homo sapiens, MGC 803, 72 h; for IC50: read-out: IC50; for IC90: read-out: IC90
# Experimental: as §3, §4
# [11] = test system: RKO (human colon adenocarcinoma cell); test: MTT solid tumor cell growth inhibition, 72 h; format: cell-based; details: Homo sapiens; for IC50: read-out: IC50; for IC90: read-out: IC90
# Experimental: as §3, §4
# [12] = test system: MG63 (osteosarcoma); test: MTT solid tumor cell growth inhibition, 72 h; format: cell-based, human; details: Homo sapiens, MG 63, 72 h; for IC50: read-out: IC50; for IC90: read-out: IC90
# Experimental: as §3, §4
# [13] = test system: PANC-1 (pancreatic cancer); test: MTT solid tumor cell growth inhibition, 72 h; format: cell-based, human; details: Homo sapiens, PANC-1, 72 h; for IC50: read-out: IC50; for IC90: read-out: IC90
# Experimental: as §3, §4
Compound,IC50 [1],IC90 [1],IC50 [2],IC90 [2],IC50 [3],IC90 [3],IC50 [4],IC90 [4],IC50 [5],IC90 [5],IC50 [6],IC90 [6],IC50 [7],IC90 [7],IC50 [8],IC90 [8],IC50 [9],IC90 [9],IC50 [11],IC90 [11],other results
COC1=C[C@]23CCCN2CCc2cc4c(cc2[C@@H]3[C@@H]1OC(=O)[C@@](O)(CCCC(C)(C)O)CC(=O)N1CC=CC1)OCO4 [BS-HH-018],2.69 µg/mL,> 16 µg/mL,0.88 µg/mL,16 µg/mL,7.77 µg/mL,> 16 µg/mL,0.47 µg/mL,2.32 µg/mL,0.38 µg/mL,1 µg/mL,0.6 µg/mL,5.66 µg/mL,4.09 µg/mL,> 16 µg/mL,1.7 µg/mL,> 16 µg/mL,2.5 µg/mL,> 16 µg/mL,0.34 µg/mL,1.5 µg/mL,IC50 [10]: 0.94 µg/mL; IC90 [10]: 4.96 µg/mL; IC50 [12]: 0.96 µg/mL; IC90 [12]: > 16 µg/mL; IC50 [13]: 2.89 µg/mL; IC90 [13]: > 16 µg/mL
COC1=C[C@]23CCCN2CCc2cc4c(cc2[C@@H]3[C@@H]1OC(=O)[C@@](O)(CCCC(C)(C)O)CC(=O)N1CCN(CCO)CC1)OCO4 [BS-HH-020],> 16 µg/mL,> 16 µg/mL,15.1 µg/mL,> 16 µg/mL,> 16 µg/mL,> 16 µg/mL,> 16 µg/mL,> 16 µg/mL,7.46 µg/mL,15.8 µg/mL,16 µg/mL,> 16 µg/mL,> 16 µg/mL,> 16 µg/mL,> 16 µg/mL,> 16 µg/mL,> 16 µg/mL,> 16 µg/mL,8.38 µg/mL,> 16 µg/mL,IC50 [10]: 7.5 µg/mL; IC90 [10]: > 16 µg/mL; IC50 [12]: 14.1 µg/mL; IC90 [12]: > 16 µg/mL; IC50 [13]: > 16 µg/mL; IC90 [13]: > 16 µg/mL
COC1=C[C@]23CCCN2CCc2cc4c(cc2[C@@H]3[C@@H]1OC(=O)[C@@](O)(CCCC(C)(C)O)CC(=O)N1CCC(O)CC1)OCO4 [BS-HH-021],> 16 µg/mL,> 16 µg/mL,13.4 µg/mL,> 16 µg/mL,> 16 µg/mL,> 16 µg/mL,14.6 µg/mL,> 16 µg/mL,8 µg/mL,16 µg/mL,16 µg/mL,> 16 µg/mL,> 16 µg/mL,> 16 µg/mL,> 16 µg/mL,> 16 µg/mL,> 16 µg/mL,> 16 µg/mL,8.51 µg/mL,> 16 µg/mL,IC50 [10]: > 16 µg/mL; IC90 [10]: > 16 µg/mL; IC50 [12]: > 16 µg/mL; IC90 [12]: > 16 µg/mL; IC50 [13]: > 16 µg/mL; IC90 [13]: > 16 µg/mL
COC1=C[C@]23CCCN2CCc2cc4c(cc2[C@@H]3[C@@H]1OC(=O)[C@@](O)(CCCC(C)(C)O)CC(=O)N1CCSCC1)OCO4 [BS-HH-014],8.25 µg/mL,> 16 µg/mL,2 µg/mL,> 16 µg/mL,> 16 µg/mL,> 16 µg/mL,1.33 µg/mL,8.61 µg/mL,1.29 µg/mL,3.7 µg/mL,2.43 µg/mL,16 µg/mL,9.79 µg/mL,> 16 µg/mL,6.89 µg/mL,> 16 µg/mL,4 µg/mL,> 16 µg/mL,1.25 µg/mL,5.36 µg/mL,IC50 [10]: 2.92 µg/mL; IC90 [10]: 15.5 µg/mL; IC50 [12]: 6.24 µg/mL; IC90 [12]: > 16 µg/mL; IC50 [13]: 8 µg/mL; IC90 [13]: > 16 µg/mL
COC1=C[C@]23CCCN2CCc2cc4c(cc2[C@@H]3[C@@H]1OC(=O)[C@@](O)(CCCC(C)(C)O)CC(=O)Nc1nccs1)OCO4 [BS-HH-008],13.4 µg/mL,> 16 µg/mL,4.69 µg/mL,16 µg/mL,> 16 µg/mL,> 16 µg/mL,5 µg/mL,> 16 µg/mL,5.62 µg/mL,12.8 µg/mL,11 µg/mL,> 16 µg/mL,16 µg/mL,> 16 µg/mL,> 16 µg/mL,> 16 µg/mL,11.2 µg/mL,> 16 µg/mL,4.44 µg/mL,16 µg/mL,IC50 [12]: 15.5 µg/mL; IC90 [12]: > 16 µg/mL; IC50 [13]: > 16 µg/mL; IC90 [13]: > 16 µg/mL
